Counter-ions that a name gives are not always drawn. Like-named read-outs stand apart in the source and are kept apart here.
Legend:
[1] = tested on: male, Sprague-Dawley rats; assay: Catalepsy Test in Rats; conditions: 50 mg/kg IP
Description: The catalepsy test is taken to evaluate the liability of anti-psychotics to produce extra-pyramidal side effects.
The forepaws of male, Sprague-Dawley rats obtained from Charles River (170-240 g) were gently placed on a black cork (3.5 cm high) and the time until the forepaw was removed was recorded. Each rat was given three trials with a maximum time of 60 sec on the cork. The sum of the three trials was taken as the score for each rat. Percent catalepsy was defined as the percent of 180 sec (maximum time) that a rat permitted its forepaw to rest on the cork. […] In each test session, two control groups were used; animals treated with saline (or vehicle) served as a negative control and animals treated with haloperidol were a positive control.

Male Charles-River rats = assay: Rat Glass Bead Test (propulsive motility of the distal colon); type: in vivo; conditions: mean expulsion time of glass bead
Description: The rat glass bead test is used to evaluate the action of compounds on propulsive motility of the distal colon. Male Charles-River rats weighing 50-90 grams are fasted for at least 18 hours in individual cages with water provided. Groups of rats are then dosed by the indicated route at the appropriate pretreatment time. A 4 mm glass bead is then inserted 3.5 cm into the distal colon through the anus using a 4 mm diameter glass rod. Rats are then placed in open top glass jars and observed for 60 minutes. The time for expulsion of the bead is noted for each rat. Rats not expelling the bead after 60 minutes are necropsied and the presence of the bead in the colon confirmed. […] Statistical analysis is done using one way analysis of variance and Fisher's LSD comparison. A probability of less than 0.05 is considered to be statistically significant.

[2] = Overall statement on the other non-antipsychotic screens; conditions: screens in which they have been tested to date
Description: (§1) The antipsychotic activity of the compounds of the invention may be determined by the Block of Conditioned Avoidance Responding (Rat) test (CAR), references being Cook, L. and E. Weidley in Ann.

[3] = Overall statement on the antipsychotic screens (CAR test and D-2 affinity); conditions: as far as tested
Description: as §1

[4] = molecular target: T1, D-2 (dopamine-2) receptors (Rattus norvegicus, UniProt P61169); assay: biochemical; type: binding, male, Wistar rats; conditions: rat striatum P2 fraction, 3H-spiperone 0.05 nM; read-out: Receptor Binding (Ki nM) D2
T1 construct: The D2 assay employed a P2 fraction from the striatum, the ligand ^3H-spiperone at a concentration of 0.05 nM; from tissue; host or cells: rat striatum, P2 fraction (synaptosomal membranes), male Wistar rats
Description: The dopamine D2 binding activity of compounds was determined using a P2 fraction (synaptosomal membranes) prepared from male, Wistar rats.
The data from this assay were analyzed by calculating the percent inhibition of the binding of the tritiated ligands by given concentrations of the test compound. Kl values, where given, were obtained from the logit analysis of concentration-inhibition curves.

Male, Fischer 344 rats = assay: Block of Conditioned Avoidance Responding (Rat) test (CAR); conditions: for CAR 15 mg/kg IP Administration (% change CAR) / CAR 5 mg/kg IP Administration (% change CAR): negative number = blockade of CAR
Method in brief: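 Trained rats at 90% avoidance ran 60-trial sessions with a 15-sec light/tone conditioned stimulus, then a 0.7 mA shock. Vehicle was given on Day 1 and test compound on Day 2, with matched route and pretreatment time. The % change in CAR versus Day 1 and % escape failures are group means, with escape loss at 5 mg/kg unless noted.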

[5] = tested on: apomorphine-induced emesis in the dog; assay: Block of Apomorphine-Induced Emesis In Dogs; type: in vivo; conditions: for ED50: Canis lupus familiaris, read-out: ED50 and 95% confidence limits, apomorphine HCl 1 mg/kg s.c.; for inhibition of apomorphine-induced emesis in the dog: in vivo
Description: This latter test is used in the preclinical evaluation of antipsychotics, and it also implies that the compounds could be used clinically for the treatment of emesis.
This procedure was modified from that described in Janssen, P. A. J.; Niemegeers, C. J. E.; Schellekens, K. Arzn.-Forch. […] The animals were treated with a test dose of apomorphine HCI to produce retching, and the effectiveness of a test compound in blocking that retching is determined. […] Following one of several pretreatments, a challenge dose of 1 mg/kg apomorphine HCl s.c. was given and the number of retches that occurred during the following 20 min period was recorded. At the start of the series, and after one week on testing, all dogs were pretreated with saline before the challenge dose of apomorphine HCI was administered. All of the saline-pretreated animals retched. […] Data were analyzed to determine the ED50 dose for blocking apomorphine HCI-induced emesis.

[6] = tested on: spontaneously hypertensive rats (SHR model); assay: Spontaneously Hypertensive Rat Test (SHR); type: in vivo; conditions: 30 mg/kg p.o.
Description: Compounds #37 and 87 were also evaluated in the fully recovered, unanesthetized, unrestrained spontaneously hypertensive rats (SHR model) which is described hereinafter. They were deemed to be active because at doses of 30 mg/kg p.o. they caused a drop in the mean arterial pressure. For compound #37 the drop was 26 mm of mercury with an onset of 0.5 h and a duration of 3.5 h. For compound no. 87 the drop was 37 mm of mercury with an onset of 0.25 h and a duration of 5.75 h.
Adult male 350-450 g SHR [Tac:N(SHR)FBR], Taconic Farms, Germantown, New York are prepared for direct measurement of arterial pressure, housed in individual cages, and maintained on constant intraarterial infusion to assure catheter patency. Rats are permitted a 7-day postoperative recovery period to allow complete restoration of salt/water balance and body weight. Rats are assigned to vehicle or drug treatment groups (n=3/group). Drugs are uniformly suspended in 1% methylcellulose vehicle and given orally by gavage. Parameters are sampled continuously from the conscious, unrestrained rats and averaged every 15 min for the first 2 h and then hourly through 24 h after dosing. In order to take diurnal changes that are not drug related into account, 24 h timecourse curves for each parameter in drug treated SHR are compared to those from the concurrent control group. Since the average standard between-subject error is about 5 mm of mercury for arterial pressure parameters and about 11 bpm for heart rate, differences from concurrent control of greater than 10 mm of mercury and 22 bpm (2 SEM) are considered drug-related activity. Onset and duration are calculated from any pattern that achieves a maximum difference that meets these criteria.

[7] = intravenous (IV) administration
[8] = oral administration, 1 h pretreatment
[9] = oral administration, 4 h pretreatment

T1 sequence (P61169 whole entry): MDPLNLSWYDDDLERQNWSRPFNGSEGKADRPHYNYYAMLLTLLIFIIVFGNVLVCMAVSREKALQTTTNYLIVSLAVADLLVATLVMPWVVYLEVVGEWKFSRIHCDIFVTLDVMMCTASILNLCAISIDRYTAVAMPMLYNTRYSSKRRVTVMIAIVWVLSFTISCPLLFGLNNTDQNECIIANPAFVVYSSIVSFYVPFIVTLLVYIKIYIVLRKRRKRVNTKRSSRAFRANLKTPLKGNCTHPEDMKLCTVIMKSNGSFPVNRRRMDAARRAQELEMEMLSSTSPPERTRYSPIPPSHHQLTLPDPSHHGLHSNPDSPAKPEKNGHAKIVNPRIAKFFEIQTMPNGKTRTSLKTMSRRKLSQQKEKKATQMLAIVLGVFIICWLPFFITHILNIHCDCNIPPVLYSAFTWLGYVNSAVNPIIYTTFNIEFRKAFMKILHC

Row | Ki [4] [nM] | (Escape Loss) % failures to escape (Male, Fischer 344 rats; at CAR 5 mg/kg IP) [%] | Structure (SMILES) | Catalepsy (%) ([1]; Pre-Reaction Time 60 min) | Glass bead expulsion time (Male Charles-River rats; IP, 1.0 mg/kg) [min] | potential antipsychotic activity in either of the screens [3] | CAR 5 mg/kg IP Administration (% change CAR) (Male, Fischer 344 rats) [%] | further results
1 | – | – | CC(C)Oc1ccccc1N1CCN(Cc2ccccc2C(=O)N2CCCCC2)CC1.Cl.Cl [Compound 111, 1-[2-[[4-[2-(1-Methylethoxy)phenyl]-1-piperazinyl]methyl]benzoyl]piperidine Dihydrochloride] | 52 | 11 | – | – | Catalepsy (%) ([1]; Pre-Reaction Time 240 min): 50.7%
2 | > 1000 | – | COc1cccc(OC)c1N1CCN(Cc2cccc(C(=O)N3CCCCC3)c2)CC1 [Compound 48] | – | 14 | not exhibited potential antipsychotic activity | – | activity in any of the other non-antipsychotic screens [2]: not exhibited activity; CAR 15 mg/kg IP Administration (% change CAR) (Male, Fischer 344 rats): -1%; (Escape Loss) % failures to escape (Male, Fischer 344 rats; at CAR 15 mg/kg IP): 1%
3 | 18 | 0 | O=C(c1cccc(CN2CCN(c3ccccc3Cl)CC2)c1)N1CCCCCC1 [Compound 93] | 20.0 | 25 | – | -23 | Catalepsy (%) ([1]; Pre-Reaction Time 240 min): 1.9%
4 | 703 | – | CC(O)COc1ccccc1N1CCN(Cc2cccc(C(=O)N3CCCCC3)c2)CC1 (stereo not shown) [Compound 27] | – | – | not exhibited potential antipsychotic activity | – | CAR 15 mg/kg IP Administration (% change CAR) (Male, Fischer 344 rats): -8%; (Escape Loss) % failures to escape (Male, Fischer 344 rats; at CAR 15 mg/kg IP): 0%
5 | – | – | CC(C)Oc1ccccc1N1CCN(Cc2cccc(C(=O)N3CCCCC3)c2)CC1 [Compound 53, 1-[3-[[4-[2-(1-Methylethoxy)phenyl]-1-piperazinyl]methyl]benzoyl]piperidine Hydrochloride (3:2)] | 32.4 | – | – | – | Catalepsy (%) ([1]; Pre-Reaction Time 240 min): 47.9%; CAR IP Administration (% change CAR) at 7.5 mg/kg (Male, Fischer 344 rats; 7.5 mg/kg IP): -91%; (Escape Loss) % failures to escape (Male, Fischer 344 rats; at CAR 7.5 mg/kg IP): 8%; ED50 [5, 7]: 0.03 mg/kg; ED50 [5, 8]: 0.038 mg/kg; ED50 [5, 9]: 0.263 mg/kg; inhibition of apomorphine-induced emesis in the dog [5]: particularly potent inhibitors
6 | 79 | 14 | CC(C)Oc1cc(F)ccc1N1CCN(Cc2cccc(C(=O)N3CCOCC3)c2)CC1 [Compound 80] | 84.8 | 14 | – | -91 | Catalepsy (%) ([1]; Pre-Reaction Time 240 min): 62.0%
7 | – | – | O=C(CCCN1CCC(O)(c2ccc(Cl)cc2)CC1)c1ccc(F)cc1 [Haloperidol, haloperidol, reference compound] | – | – | – | – | ED50 [5, 7]: 0.023 mg/kg; ED50 [5, 8]: 0.088 mg/kg; ED50 [5, 9]: 0.028 mg/kg
8 | > 1000 | – | CC1CN(Cc2cccc(C(=O)N3CCCCC3)c2)CCN1c1ccccc1 (stereo not shown) [Compound 8] | – | – | not exhibited potential antipsychotic activity | – | activity in any of the other non-antipsychotic screens [2]: not exhibited activity
9 | > 1000 | 0 | O=C(c1cccc(CN2CCN(c3ccc4c(c3)OCO4)CC2)c1)N1CCCCC1 [Compound 36] | – | – | not exhibited potential antipsychotic activity | -10 | Glass bead expulsion time (Male Charles-River rats; PO, 10.0 mg/kg): 7.4 min
10 | – | – | O=C(c1cccc(CN2CCN(c3ccc(Cl)cc3)CC2)c1)N1CCCCC1 [Compound 87] | – | 28 | not exhibited potential antipsychotic activity | – | activity in the SHR model [6]: active; drop in the mean arterial pressure [6]: 37 mm of mercury; duration of the drop in mean arterial pressure [6]: 5.75 h; onset of the drop in mean arterial pressure [6]: 0.25 h; CAR 15 mg/kg IP Administration (% change CAR) (Male, Fischer 344 rats): -5%; (Escape Loss) % failures to escape (Male, Fischer 344 rats; at CAR 15 mg/kg IP): 0%
11 | > 1000 | – | CC(C)Oc1ccccc1N1CCN(Cc2cccc(C(=O)N3CCCCC3C(=O)O)c2)CC1 (stereo not shown) [Compound 24] | – | – | not exhibited potential antipsychotic activity | – | activity in any of the other non-antipsychotic screens [2]: not exhibited activity
12 | > 1000 | – | COc1ccc(OC)c(N2CCN(Cc3cccc(C(=O)N4CCCC4)c3)CC2)c1 [Compound 47] | – | – | not exhibited potential antipsychotic activity | – | activity in any of the other non-antipsychotic screens [2]: not exhibited activity; CAR 15 mg/kg IP Administration (% change CAR) (Male, Fischer 344 rats): 2%; (Escape Loss) % failures to escape (Male, Fischer 344 rats; at CAR 15 mg/kg IP): 0%
13 | – | 5 | CC(C)Oc1ccccc1N1CCN(Cc2cccc(C(=O)N3CCCCCC3)c2)CC1.Cl [Compound 54, Hexahydro-1-[3-[[4-[2-(1-methylethoxy)phenyl]-1-piperazinyl]methyl]-benzoyl]-1H-azepine monohydrochloride] | – | 16 | – | -88 | ED50 [5, 7]: 0.019 mg/kg; ED50 [5, 8]: 0.047 mg/kg; ED50 [5, 9]: 0.251 mg/kg; inhibition of apomorphine-induced emesis in the dog [5]: particularly potent inhibitors
14 | > 1000 | 1 | O=C(c1cccc(CN2CCN(c3ncccn3)CC2)c1)N1CCCCC1 [Compound 37] | – | – | not exhibited potential antipsychotic activity | -18 | Glass bead expulsion time (Male Charles-River rats; PO, 10.0 mg/kg): 25 min; activity in the SHR model [6]: active; drop in the mean arterial pressure [6]: 26 mm of mercury; duration of the drop in mean arterial pressure [6]: 3.5 h; onset of the drop in mean arterial pressure [6]: 0.5 h
15 | > 1000 | – | O=C(c1cccc(CN2CCN(c3ncccn3)CC2)c1)N1CCC[C@H]1CO [Compound 20] | – | – | not exhibited potential antipsychotic activity | – | activity in any of the other non-antipsychotic screens [2]: not exhibited activity; CAR 15 mg/kg IP Administration (% change CAR) (Male, Fischer 344 rats): -17%; (Escape Loss) % failures to escape (Male, Fischer 344 rats; at CAR 15 mg/kg IP): 1%
16 | 29 | 42 | COc1ccccc1N1CCN(Cc2cccc(C(=O)N3CCCCC3)c2)CC1 [Compound 84] | 18.8 | 42 | – | -98 | Catalepsy (%) ([1]; Pre-Reaction Time 240 min): 33.9%
17 | 1.2 | 2 | CC(C)Oc1ccccc1C1CCN(Cc2cccc(C(=O)N3CCCCCC3)c2)CC1 [Compound 39] | 17.3 | – | – | -86 | –

— EP0563345B1, “NOVEL 4-ARYLPIPERAZINES AND 4-ARYLPIPERIDINES” (MCNEILAB, INC., priority 1991, dated 1993)
